Results published in ChEMBL document CHEMBL1201862, “PubChem BioAssay data set” (2004).
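Interpolation was linear, between the two tested concentrations surrounding the appropriate level; five concentrations were tested over 48 hours in 96-well plates. The concentration for 50% growth inhibition is given as GI50.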 Active and inactive are the calls of the source. No stated cut-off is given here; in the data, active = GI50 up to about 1.1 µM and inactive = higher.

What was measured:
Assay in all cases: NCI tumour cell line growth inhibition, 48 h
[1] = tested on: RPMI-8226
[2] = tested on: NCI-H522
[3] = tested on: NCI-H226
[4] = tested on: OVCAR-5
[5] = tested on: RXF 393
[6] = tested on: DU-145
[7] = tested on: MDA-MB-231
[8] = tested on: IGROV-1
[9] = tested on: SK-MEL-28
[10] = tested on: EKVX
[11] = tested on: HOP-62
[12] = tested on: A498
[13] = tested on: SNB-19
[14] = tested on: SF-295
[15] = tested on: Malme-3M
[16] = tested on: UACC-62
[17] = tested on: HCC 2998
[18] = tested on: OVCAR-4
[19] = tested on: MDA-MB-435
[20] = tested on: COLO 205

Row | Structure (SMILES) | GI50 [1] | GI50 [2] | GI50 [3] | GI50 [4] | GI50 [5] | GI50 [6] | GI50 [7] | GI50 [8] | GI50 [9] | GI50 [10] | GI50 [11] | GI50 [12] | GI50 [13] | GI50 [14] | GI50 [15] | GI50 [16] | GI50 [17] | GI50 [18] | GI50 [19] | GI50 [20]
1 | O=C(O)CCC1COc2ccccc2O1 (stereo not given) | > 10 µM (inactive) | > 10 µM (inactive) | > 10 µM (inactive) | > 10 µM (inactive) | > 10 µM (inactive) | > 10 µM (inactive) | > 10 µM (inactive) | > 10 µM (inactive) | > 10 µM (inactive) | > 10 µM (inactive) | > 10 µM (inactive) | > 10 µM (inactive) | > 10 µM (inactive) | > 10 µM (inactive) | > 10 µM (inactive) | > 10 µM (inactive) | > 10 µM (inactive) | > 10 µM (inactive) | > 10 µM (inactive) | > 10 µM (inactive)
2 | O=C1NC(=S)NC(=O)C1=C(O)Nc1ccccc1 | 27.4 µM (inactive) | 21.7 µM (inactive) | 30.5 µM (inactive) | 47.2 µM (inactive) | 33.2 µM (inactive) | 30.5 µM (inactive) | 31.8 µM (inactive) | 32 µM (inactive) | 47.9 µM (inactive) | 35.7 µM (inactive) | 23.2 µM (inactive) | 28.6 µM (inactive) | 25.8 µM (inactive) | 27.7 µM (inactive) | 25.8 µM (inactive) | 19.5 µM (inactive) | 42.8 µM (inactive) | 34.6 µM (inactive) | 7.98 µM (inactive) | 27.4 µM (inactive)
3 | O=C1/C(=C\c2ccccc2)CN(C(=O)CCN2CCCCC2)C/C1=C/c1ccccc1 | 0.0832 µM (active) | 0.757 µM (active) | 6.11 µM (inactive) | 1.72 µM (inactive) | 1.95 µM (inactive) | 5.21 µM (inactive) | 1.48 µM (inactive) | 1.95 µM (inactive) | 1.97 µM (inactive) | 3.71 µM (inactive) | 12.9 µM (inactive) | 2.69 µM (inactive) | 1.84 µM (inactive) | 1.67 µM (inactive) | 2.25 µM (inactive) | 1.43 µM (inactive) | 1.44 µM (inactive) | 1.73 µM (inactive) | 2.05 µM (inactive) | 1.76 µM (inactive)
4 | COc1c2c3c4c(c(OC)c(=O)c5c(O)cc(OC)c(c6c(OC)cc(O)c(c1=O)c63)c54)C(C(C)O)C2C(C)=O (stereo not given) | 0.513 µM (active) | 0.171 µM (active) | 0.528 µM (active) | 0.603 µM (active) | 0.06 µM (active) | 0.641 µM (active) | 0.741 µM (active) | 0.445 µM (active) | 0.189 µM (active) | 0.482 µM (active) | 0.177 µM (active) | 0.628 µM (active) | 0.264 µM (active) | 0.256 µM (active) | 0.448 µM (active) | 0.483 µM (active) | 0.481 µM (active) | 0.46 µM (active) | 0.295 µM (active) | 0.571 µM (active)
5 | Nc1nc(Cl)c2ncn(Cc3cccc(CCl)c3)c2n1 | 2.57 µM (inactive) | 2.4 µM (inactive) | 6.28 µM (inactive) | 9.16 µM (inactive) | 2.61 µM (inactive) | 6.03 µM (inactive) | 11 µM (inactive) | 3.31 µM (inactive) | 5.28 µM (inactive) | 8.97 µM (inactive) | 2.84 µM (inactive) | 25 µM (inactive) | 5.89 µM (inactive) | 7.01 µM (inactive) | 5.81 µM (inactive) | 4.16 µM (inactive) | 3.03 µM (inactive) | 2.13 µM (inactive) | 6.73 µM (inactive) | 8.38 µM (inactive)
6 | COC(=O)CCCc1nc2ccccc2nc1/N=N/c1ccccc1 | 22.9 µM (inactive) | 19.1 µM (inactive) | 43 µM (inactive) | > 100 µM (inactive) | 62.5 µM (inactive) | 48.3 µM (inactive) | > 100 µM (inactive) | 25.5 µM (inactive) | 38.5 µM (inactive) | 73.6 µM (inactive) | 52.5 µM (inactive) | > 100 µM (inactive) | 56 µM (inactive) | 41 µM (inactive) | 17.4 µM (inactive) | > 100 µM (inactive) | > 100 µM (inactive) | 50.8 µM (inactive) | 58.7 µM (inactive) | 3.71 µM (inactive)
7 | CC1NC(=O)c2c(-c3ccccc3)nn(-c3ccccc3)c2NC1=O (stereo not given) | > 100 µM (inactive) | > 100 µM (inactive) | > 100 µM (inactive) | > 100 µM (inactive) | > 100 µM (inactive) | > 100 µM (inactive) | > 100 µM (inactive) | > 100 µM (inactive) | > 100 µM (inactive) | > 100 µM (inactive) | > 100 µM (inactive) | > 100 µM (inactive) | > 100 µM (inactive) | > 100 µM (inactive) | > 100 µM (inactive) | > 100 µM (inactive) | > 100 µM (inactive) | > 100 µM (inactive) | > 100 µM (inactive) | > 100 µM (inactive)
8 | COC(=O)[C@@H]1CS(=O)(=O)C(C(C)C)N1C(C)=O (stereo not given in full) | > 100 µM (inactive) | > 100 µM (inactive) | > 100 µM (inactive) | > 100 µM (inactive) | > 100 µM (inactive) | > 100 µM (inactive) | > 100 µM (inactive) | > 100 µM (inactive) | > 100 µM (inactive) | > 100 µM (inactive) | > 100 µM (inactive) | > 100 µM (inactive) | > 100 µM (inactive) | > 100 µM (inactive) | > 100 µM (inactive) | > 100 µM (inactive) | > 100 µM (inactive) | > 100 µM (inactive) | > 100 µM (inactive) | > 100 µM (inactive)
9 | O=C(N=C1N(c2ccccc2)C(=O)C(=O)N1c1ccccc1)c1ccccc1 | 13.8 µM (inactive) | 1.66 µM (inactive) | 12 µM (inactive) | 27.5 µM (inactive) | 3.58 µM (inactive) | 6.7 µM (inactive) | 6.9 µM (inactive) | 10.5 µM (inactive) | 17.5 µM (inactive) | 12.7 µM (inactive) | 11.5 µM (inactive) | 18.2 µM (inactive) | 13.3 µM (inactive) | 11.3 µM (inactive) | 17.4 µM (inactive) | 7.93 µM (inactive) | 8.53 µM (inactive) | 2.95 µM (inactive) | 22.9 µM (inactive) | 13.9 µM (inactive)
10 | O=C(Nc1ccc2[nH]c(C(=O)N3CC(CCl)c4c3cc([N+](=O)[O-])c3ccccc43)cc2c1)c1cc2ccccc2o1 (stereo not given) | > 100 µM (inactive) | > 100 µM (inactive) | 48.9 µM (inactive) | > 100 µM (inactive) | > 1100 µM (inactive) | > 51.6 µM (inactive) | > 63 µM (inactive) | > 51.6 µM (inactive) | > 58.1 µM (inactive) | > 100 µM (inactive) | > 100 µM (inactive) | > 57.7 µM (inactive) | > 100 µM (inactive) | 395 µM (inactive) | > 100 µM (inactive) | > 100 µM (inactive) | > 46.9 µM (inactive) | > 100 µM (inactive) | > 100 µM (inactive) | > 58.1 µM (inactive)
11 | COc1cccc2c(=O)c3c(n(C)c12)OC(C(C)C)C3 (stereo not given) | 46.7 µM (inactive) | > 100 µM (inactive) | 83.2 µM (inactive) | > 100 µM (inactive) | > 100 µM (inactive) | > 100 µM (inactive) | > 100 µM (inactive) | 42.6 µM (inactive) | > 100 µM (inactive) | 89.5 µM (inactive) | > 100 µM (inactive) | > 100 µM (inactive) | 69.7 µM (inactive) | > 100 µM (inactive) | > 100 µM (inactive) | > 100 µM (inactive) | > 100 µM (inactive) | 22.5 µM (inactive) | > 100 µM (inactive) | 74 µM (inactive)
12 | CC12CCCCC1=C(F)C(F)(F)S2 (stereo not given) | 7.46 µM (inactive) | 21.5 µM (inactive) | > 100 µM (inactive) | 62.5 µM (inactive) | 20.5 µM (inactive) | > 89.1 µM (inactive) | 83.9 µM (inactive) | > 71.9 µM (inactive) | 28 µM (inactive) | > 78.7 µM (inactive) | 63.8 µM (inactive) | > 100 µM (inactive) | > 100 µM (inactive) | 41.9 µM (inactive) | 24.4 µM (inactive) | 42.4 µM (inactive) | > 67.1 µM (inactive) | 48.3 µM (inactive) | 43.3 µM (inactive) | 15.1 µM (inactive)
13 | CCSC1SC(c2ccccc2)(c2ccccc2)c2ccccc21 (stereo not given) | 32.8 µM (inactive) | 43.5 µM (inactive) | 31.6 µM (inactive) | 45.4 µM (inactive) | 19.5 µM (inactive) | 64.7 µM (inactive) | 73.1 µM (inactive) | 75.3 µM (inactive) | 79.8 µM (inactive) | 51.3 µM (inactive) | > 100 µM (inactive) | 22.5 µM (inactive) | > 100 µM (inactive) | 70 µM (inactive) | 34.1 µM (inactive) | 53.6 µM (inactive) | 45.1 µM (inactive) | 55.1 µM (inactive) | 33.7 µM (inactive) | 35 µM (inactive)
14 | COc1ccc(/C=C/C(=O)c2ccccc2)cc1OC | 7.41 µM (inactive) | 6.85 µM (inactive) | 19.8 µM (inactive) | 16.9 µM (inactive) | 14.3 µM (inactive) | 11.4 µM (inactive) | 19.5 µM (inactive) | 17.2 µM (inactive) | 21.1 µM (inactive) | 14.8 µM (inactive) | 15.4 µM (inactive) | 16.4 µM (inactive) | 11.2 µM (inactive) | 16.4 µM (inactive) | 16.7 µM (inactive) | 13.4 µM (inactive) | 17.9 µM (inactive) | 16.7 µM (inactive) | 4.59 µM (inactive) | 15.9 µM (inactive)
